Results from patent US6402037B1, “Two-photon upconverting dyes and applications” (The Research Foundation of State University of New York, priority 1995, dated 2002).

Legend:
[1] = Energy transfer measurement (fluorescence of ASPS and TPPS in D2O)
Description: An experiment based on the fluorescence emission of porphyrin and ASPS was conducted to show energy transfer from the dye to the porphyrin. D2O solutions of the ASPS and TPPS were mixed in different concentrations in a quartz cuvette and placed in the sample compartment of a spectrofluorophotometer. […] The beam energy used in this experiment was approximately 50 mJ in a beam having a 4 mm diameter. […] The porphyrin without the ASPS was also irradiated with the IR laser light to determine any possible contributions from the porphyrin due to two-photon excitation. […] ASPS and TPPS solutions were mixed together and a series of spectra were collected to determine dependence of fluorescence emission spectrum on the concentration of the different molecular species.

[2] = Decomposition temperature (Td) by DSC thermogram; type: physicochemical; conditions: DSC under nitrogen
Description: Decomposition temperature (“Td”) of each dye was measured by differential scanning calorimetry (“DSC”) thermogram using a Shimadzu DSC-50GPC under nitrogen. Elemental: analysis were performed by Atlantic Microlab, Inc., P.O. Box 2288, Norcross, Ga. 30019. Proton NMR spectra, TV/visible absorption spectra, and UV/visible emission spectra were recorded using a Varian Gemini-300 300 MHz spectrometer, a Shimazdu UV-3101 PC spectrophotometer, and a Shimazdu RF5000U spectrofluorophotometer, respectively: TV/visible absorption spectra of dyes prepared in these Examples in DMF, are provided in FIG. 3.

[3] = Two-photon pumped cavity lasing of APSS solution filled hollow fiber (800 nm pump)
Source text: As a comparison, the absorption spectrum of 1 mm-path length pure solvent (DMSO) is also provided. There is a strong absorption band around 400 nm due to APSS dye, and the solution is transparent in the 570˜1100 nm spectral range. However, the two-photon energy of ˜800 nm IR radiation falls into the strong absorption band. Therefore, an effective TPA process is expected by ˜800 nm excitation. […] The same effect is expected with increased path length of the solution sample with a given concentration.
The input 800 nm pump IR laser beam was provided by a pulsed dye laser pumped with a Q-switched and frequency-doubled Nd: YAG laser source. The beam size, pulse duration, angular divergence, and repetition rate of the input pump laser radiation were ˜3 mm, ˜5 ns, ˜1 mrad, and 1-10 Hz, respectively. The pump beam was focused by a 4×-microscope objective into the input end of a 15-cm long hollow quartz fiber filled with APSS, prepared as described in Example 16, in DMSO (do=0.012 M). […] Under the excitation of the input 800 nm pump beam, a strong TPA induced green fluorescence emission was seen from the hollow fiber. […]
The spectral intensity distribution of two-photon pumped cavity lasing from the above system is shown in FIG. 16 (dashed curve) at a pump energy level of Eo=290 μJ. For comparison, the one photon (at 400 nm) induced fluorescence spectrum of the same dye solution with the same concentration is also shown in FIG. 16 (solid curve). The bandwidth of cavity lasing was much narrower than the bandwidth of corresponding one-photon induced fluorescence emission without using any intracavity dispersion element. […] Therefore, the blue-side and central range of the fluorescence band would be expected to be more difficult to lase.
The measured single-pulse waveform was recorded by using a fast photodiode detector in conjunction with a 350 MHz oscilloscope (Tektronix 2467 with C1001 video camera). […] At a pump level of ˜150 μJ, the measured one-pass two-photon absorption in the 15 cm-long dye solution filled hollow fiber sample was only about ˜25%. […]

With “trans-4-[p-(-ethyl-N-hydroxyethylamino)styryl]-N-butansulfonpyridinum [dye4]” the “two-photon induced fluorescence emission peak” value ([1]; 1060 nm excitation) was 610 nm and the “Decomposition temperature (Td)” value [2] was 241 °C.
For CN(CCO)c1ccc(C=Cc2ccc(S(=O)(=O)CCCCCCO)cc2)cc1 [APSS], the “central wavelength of one-photon fluorescence band” value ([3]; DMSO 0.012 M, 400 nm excitation) was roughly 520 nm, the “strong linear absorption band” value ([3]; DMSO solution, 1 mm path) was “around 400 nm” and the transparent spectral range ([3]; DMSO solution, 1 mm path) was 570˜1100 nm.
In the case of O=S(=O)(O)c1ccc(-c2c3nc(c(-c4ccc(S(=O)(=O)O)cc4)c4ccc([nH]4)c(-c4ccc(S(=O)(=O)O)cc4)c4nc(c(-c5ccc(S(=O)(=O)O)cc5)c5ccc2[nH]5)C=C4)C=C3)cc1 [TPPS, meso tetra(p-sulfonaphenyl)porphyrin], the “emission peak in mixture with ASPS” value ([1]; 1060 nm excitation) is reported as 653 nm and the emission peak ([1]; excited at 610 nm) is reported as 650 nm.
